# Laboratory results published in patent publication US11603372B2, “Compounds and therapeutic uses thereof” (VioGen Biosciences, LLC, priority 2017, dated 2023).
# Molecular target: PIKfyve (Homo sapiens (Human), UniProt Q9Y2I7)
# Experiment: Kinase binding assay (kinase-tagged T7 phage, affinity beads, qPCR readout), Kd determination
# Details: 11-point 3-fold compound dilution series
# Method: Kinase assays. For most assays, kinase-tagged T7 phage strains were prepared in an E. coli host derived from the BL21 strain. E. coli were grown to log-phase and infected with T7 phage and incubated with shaking at 32° C. until lysis. The lysates were centrifuged and filtered to remove cell debris. The remaining kinases were produced in HEK-293 cells and subsequently tagged with DNA for qPCR detection. Streptavidin-coated magnetic beads were treated with biotinylated small molecule ligands for 30 minutes at room temperature to generate affinity resins for kinase assays. The liganded beads were blocked with excess biotin and washed with blocking buffer (SeaBlock (Pierce), 1% BSA, 0.05% Tween 20, 1 mM DTT) to remove unbound ligand and to reduce non-specific binding. Binding reactions were assembled by combining kinases, liganded affinity beads, and test compounds in 1× binding buffer (20% SeaBlock, 0.17×PBS, 0.05% Tween 20, 6 mM DTT). Test compounds were prepared as 111× stocks in 100% DMSO. Kds were determined using an 11-point 3-fold compound dilution series with three DMSO control points. All compounds for Kd measurements are distributed by acoustic transfer (non-contact dispensing) in 100% DMSO. The compounds were then diluted directly into the assays such that the final concentration of DMSO was 0.9%. All reactions performed in polypropylene 384-well plate. Each was a final volume of 0.02 ml. The assay plates were incubated at room temperature with shaking for 1 hour and the affinity beads were washed with wash buffer (1×PBS, 0.05% Tween 20). The beads were then re-suspended in elution buffer (1×PBS, 0.05% Tween 20, 0.5 μM non-biotinylated affinity ligand) and incubated at room temperature with shaking for 30 minutes. The kinase concentration in the eluates was measured by qPCR.
# An 11-point 3-fold serial dilution of each test compound was prepared in 100% DMSO at 100× final test concentration and subsequently diluted to 1× in the assay (final DMSO concentration=1%). Most Kds were determined using a compound top concentration=30,000 nM. If the initial Kd determined was <0.5 nM (the lowest concentration tested), the measurement was repeated with a serial dilution starting at a lower top concentration.
# PIKfyve, sequence (Q9Y2I7 whole entry): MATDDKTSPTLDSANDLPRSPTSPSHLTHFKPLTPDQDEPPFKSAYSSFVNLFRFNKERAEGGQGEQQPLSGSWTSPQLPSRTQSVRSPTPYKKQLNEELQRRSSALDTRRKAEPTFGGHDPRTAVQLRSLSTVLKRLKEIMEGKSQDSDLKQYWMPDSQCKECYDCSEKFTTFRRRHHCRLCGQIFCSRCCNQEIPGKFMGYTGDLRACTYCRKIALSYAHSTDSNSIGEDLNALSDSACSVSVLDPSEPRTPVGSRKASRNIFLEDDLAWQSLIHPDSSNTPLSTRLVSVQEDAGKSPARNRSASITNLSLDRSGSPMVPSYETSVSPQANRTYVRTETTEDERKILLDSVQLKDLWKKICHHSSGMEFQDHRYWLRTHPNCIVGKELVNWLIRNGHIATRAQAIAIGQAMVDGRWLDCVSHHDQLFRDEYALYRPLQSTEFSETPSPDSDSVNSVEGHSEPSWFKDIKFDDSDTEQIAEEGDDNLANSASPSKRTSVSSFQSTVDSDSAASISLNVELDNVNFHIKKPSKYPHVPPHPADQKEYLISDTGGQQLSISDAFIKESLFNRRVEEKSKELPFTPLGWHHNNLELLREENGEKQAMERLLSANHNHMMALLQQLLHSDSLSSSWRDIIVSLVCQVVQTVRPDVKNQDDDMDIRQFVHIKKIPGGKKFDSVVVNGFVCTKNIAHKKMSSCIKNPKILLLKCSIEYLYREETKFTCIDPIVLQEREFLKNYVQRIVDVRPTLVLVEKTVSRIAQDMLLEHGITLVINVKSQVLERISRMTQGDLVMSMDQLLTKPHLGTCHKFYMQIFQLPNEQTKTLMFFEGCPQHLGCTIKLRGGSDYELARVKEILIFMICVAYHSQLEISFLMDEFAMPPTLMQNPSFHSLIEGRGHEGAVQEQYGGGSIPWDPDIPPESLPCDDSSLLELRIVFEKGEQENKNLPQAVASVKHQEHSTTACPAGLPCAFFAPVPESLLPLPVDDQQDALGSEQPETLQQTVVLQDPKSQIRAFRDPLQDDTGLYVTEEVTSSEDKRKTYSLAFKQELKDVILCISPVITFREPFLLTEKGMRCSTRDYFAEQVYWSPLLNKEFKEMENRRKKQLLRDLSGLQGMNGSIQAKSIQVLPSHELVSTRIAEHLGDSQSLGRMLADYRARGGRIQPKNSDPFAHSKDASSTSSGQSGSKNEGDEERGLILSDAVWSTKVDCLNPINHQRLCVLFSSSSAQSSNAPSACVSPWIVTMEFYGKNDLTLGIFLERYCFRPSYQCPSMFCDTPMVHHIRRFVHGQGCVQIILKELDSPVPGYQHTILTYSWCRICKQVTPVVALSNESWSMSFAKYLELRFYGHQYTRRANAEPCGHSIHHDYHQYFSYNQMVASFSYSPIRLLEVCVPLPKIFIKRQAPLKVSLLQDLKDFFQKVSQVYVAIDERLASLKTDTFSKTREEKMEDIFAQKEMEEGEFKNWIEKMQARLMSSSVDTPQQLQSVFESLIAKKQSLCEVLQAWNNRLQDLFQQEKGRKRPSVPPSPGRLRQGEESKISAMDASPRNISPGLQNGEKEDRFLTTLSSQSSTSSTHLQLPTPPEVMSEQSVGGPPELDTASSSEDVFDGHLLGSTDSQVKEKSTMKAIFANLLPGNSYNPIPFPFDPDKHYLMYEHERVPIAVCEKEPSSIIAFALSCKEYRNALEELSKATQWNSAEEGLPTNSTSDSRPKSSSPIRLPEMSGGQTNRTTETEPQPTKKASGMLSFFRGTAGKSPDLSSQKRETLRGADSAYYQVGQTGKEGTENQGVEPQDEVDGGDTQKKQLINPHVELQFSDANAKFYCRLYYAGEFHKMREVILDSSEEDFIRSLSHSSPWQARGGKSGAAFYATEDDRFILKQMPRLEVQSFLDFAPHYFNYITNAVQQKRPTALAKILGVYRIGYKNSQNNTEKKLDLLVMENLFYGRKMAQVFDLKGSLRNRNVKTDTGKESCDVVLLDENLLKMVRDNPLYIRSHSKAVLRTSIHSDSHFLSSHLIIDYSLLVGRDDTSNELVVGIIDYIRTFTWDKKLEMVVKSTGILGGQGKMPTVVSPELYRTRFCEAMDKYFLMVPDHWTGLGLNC
row,SMILES,Kd [nM]
1,"Cc1cccc(/C=N/Nc2nc(N3CCOCC3)c3cc(-c4cnco4)sc3n2)c1 [Example 12, 4-morpholino-N-[(E)-m-tolylmethyleneamino]-6-oxazol-5-yl-thieno[2,3-d]pyrimidin-2-amine]",≤ 1
2,"Cc1cccc(/C=N/Nc2nc(N3CCOCC3)c3cc(-c4c(C)noc4C)sc3n2)c1 [Example 267, 6-(3,5-dimethylisoxazol-4-yl)-4-morpholino-N-[(E)-m-tolylmethyleneamino]thieno[2,3-d]pyrimidin-2-amine]",1 to 10
3,"Cc1cccc(/C=N/Nc2nc(N3CCOCC3)c3sc(-c4c(C)noc4C)cc3n2)c1 [Example 264, 6-(3,5-dimethylisoxazol-4-yl)-4-morpholino-N-[(E)-m-tolylmethyleneamino]thieno[3,2-d]pyrimidin-2-amine]",≤ 1
4,"Cc1cccc(/C=N/Nc2nc(N3CCOCC3)c3sccc3n2)c1 [Example 3, 4-morpholino-N-[(E)-m-tolylmethyleneamino]thieno[3,2-d]pyrimidin-2-amine]",1 to 10
5,"Cc1cccc(/C=N/Nc2nc(N3CCOCC3)c3sc(-c4c(C)n[nH]c4C)cc3n2)c1 [Example 263, 6-(3,5-dimethyl-1H-pyrazol-4-yl)-4-morpholino-N-[(E)-m-tolylmethyleneamino]thieno[3,2-d]pyrimidin-2-amine]",≤ 1
6,"Clc1cccc(/C=N/Nc2nc(N3CCOCC3)c3cc(-c4cnco4)sc3n2)c1 [Example 14, N-[(E)-(3-chlorophenyl)methyleneamino]-4-morpholino-6-oxazol-5-yl-thieno[2,3-d]pyrimidin-2-amine]",10 to 60
7,"Cc1cccc(/C=N/Nc2nc(N3CCOCC3)c3cc(-c4ccncc4)sc3n2)c1 [Example 11, 4-morpholino-N-[(E)-m-tolylmethyleneamino]-6-(4-pyridyl)thieno[2,3-d]pyrimidin-2-amine]",1 to 10
8,"Cc1cccc(/C=N/Nc2nc(N3CCOCC3)c3sc(-c4cnn(C)c4)cc3n2)c1 [Example 262, 6-(1-methylpyrazol-4-yl)-4-morpholino-N-[(E)-m-tolylmethyleneamino]thieno[3,2-d]pyrimidin-2-amine]",≤ 1
9,"Cc1cccc(/C=N/Nc2nc(N3CCOCC3)c3sc(-c4ccccc4)cc3n2)c1 [Example 1, 4-morpholino-N-[(E)-m-tolylmethyleneamino]-6-phenyl-thieno[3,2-d]pyrimidin-2-amine]",1 to 10
10,"Cc1cccc(CCNc2nc(N3CCOCC3)c3sc(-c4ccncc4)cc3n2)c1 [Example 255, 4-morpholino-N-[2-(m-tolyl)ethyl]-6-(4-pyridyl)thieno[3,2-d]pyrimidin-2-amine]",10 to 60
11,"Cc1cccc(/C=N/Nc2nc(N3CCOCC3)c3cc(-c4c(C)n[nH]c4C)sc3n2)c1 [Example 268, 6-(3,5-dimethyl-1H-pyrazol-4-yl)-4-morpholino-N-[(E)-m-tolylmethyleneamino]thieno[2,3-d]pyrimidin-2-amine]",1 to 10
12,"Cc1cccc(/C=N/Nc2nc(N3CCOCC3)c3ccsc3n2)c1 [Example 10, 4-morpholino-N-[(E)-m-tolylmethyleneamino]thieno[2,3-d]pyrimidin-2-amine]",10 to 60

# Now from value to molecule:
row,Kd [nM],SMILES
1,1 to 10,"Cc1cccc(/C=N/Nc2nc(N3CCOCC3)c3sc(C(=O)Nc4ccncc4)cc3n2)c1 [Example 5, 4-morpholino-2-[(2E)-2-(m-tolylmethylene)hydrazino]-N-(4-pyridyl)thieno[3,2-d]pyrimidine-6-carboxamide]"
2,≤ 1,"Cc1cccc(/C=N/Nc2nc(N3CCOCC3)c3sc(C(=O)NC4COC4)cc3n2)c1 [Example 7, 4-morpholino-2-[(2E)-2-(m-tolylmethylene)hydrazino]-N-(oxetan-3-yl)thieno[3,2-d]pyrimidine-6-carboxamide]"
3,≤ 1,"Cc1cccc(/C=N/Nc2nc(N3CCOCC3)c3sc(-c4ccncc4)cc3n2)c1 [Example 2, 4-morpholino-N-[(E)-m-tolylmethyleneamino]-6-(4-pyridyl)thieno[3,2-d]pyrimidin-2-amine]"
4,1 to 10,"Cc1cccc(/C=N/Nc2nc(N3CCOCC3)c3sc(C(=O)NC4CNC4)cc3n2)c1 [Example 22, N-(azetidin-3-yl)-4-morpholino-2-[(2E)-2-(m-tolylmethylene)hydrazino]thieno[3,2-d]pyrimidine-6-carboxamide]"
5,≤ 1,"Cc1cccc(/C=N/Nc2nc(N3CCOCC3)c3sc(C(=O)Nc4cccnc4)cc3n2)c1 [Example 4, 4-morpholino-2-[(2E)-2-(m-tolylmethylene)hydrazino]-N-(3-pyridyl)thieno[3,2-d]pyrimidine-6-carboxamide]"
6,1 to 10,"Cc1cccc(/C=N/Nc2nc(N3CCOCC3)c3sc(-c4cnco4)cc3n2)c1 [Example 9, 4-Morpholino-N-[(E)-m-tolylmethyleneamino]-6-oxazol-5-yl-thieno[3,2-d]pyrimidin-2-amine]"
7,≤ 1,"Cc1cccc(/C=N/Nc2nc(N3CCOCC3)c3sc(-c4cccnc4)cc3n2)c1 [Example 261, 4-morpholino-N-[(E)-m-tolylmethyleneamino]-6-(3-pyridyl)thieno[3,2-d]pyrimidin-2-amine]"
